Measured values taken from patent US20060029967A1, “Assay for nitrous oxide neurologic syndrome” (priority 2002, published 2006).

Legend:
methionine synthase [1] = biological target: T1, methionine synthase (Homo sapiens, UniProt Q99707); conditions: cited from earlier work
methionine synthase [2] = biological target: T1, methionine synthase; assay: Case report: infant with MTHFR deficiency anesthetized with nitrous oxide; format: in vivo; set-up: from tissue; host or cells: patient in vivo; no tissue assayed for methionine synthase; conditions: infant with inherited MTHFR deficiency; two anesthetics with 60% nitrous oxide and 0.75% halothane (45 and 270 minutes)
Text: A child discovered to have 5,10-methylenetetrahydrofolate reductase (MTHFR, […]) deficiency (OMIM #236250) died after two anesthetics using nitrous oxide (Beckman, D. R., et al., Birth Defects Orig. Artic. Ser. 23:47-64, 1987). MTHFR catalyzes the synthesis of 5-methyltetrahydrofolate. Sequence analysis of RNA transcripts and genomic DNA from the patient and family members, together with direct assays of fibroblast MTHFR activity, reveal that the enzyme deficiency was caused by a novel MTHFR mutation (1755→A) which changes conserved methionine 581 to an isoleucine, co-inherited with two common MTHFR polymorphisms (677C→T, 1298A→C) each associated with depressed enzyme function. (Frosst, P., et al., Nat. Genet. 10:111-3, 1995; van der Put, N. M., et al., Am. J. Hum. Genet. 62:1044-51, 1998).
The patient was normal […] when a mass was noted on the left lower extremity. Although not recognized prior to the patient's surgery, both the parent and uncle have serum total homocysteine levels >30.0 μM (normal 5.4-13.9 μM). On life-long, high dose vitamin B supplements, the proband's sibling has a homocysteine level of 4.3 μM. Neither the […] nor the sibling has received nitrous oxide. […]

methionine synthase [3] = biological target: methionine synthase (Mus musculus, UniProt A6H5Y3); conditions: mice exposed to nitrous oxide; cited from earlier work
methionine synthase (Mus musculus, UniProt A6H5Y3), sequence (A6H5Y3 whole entry): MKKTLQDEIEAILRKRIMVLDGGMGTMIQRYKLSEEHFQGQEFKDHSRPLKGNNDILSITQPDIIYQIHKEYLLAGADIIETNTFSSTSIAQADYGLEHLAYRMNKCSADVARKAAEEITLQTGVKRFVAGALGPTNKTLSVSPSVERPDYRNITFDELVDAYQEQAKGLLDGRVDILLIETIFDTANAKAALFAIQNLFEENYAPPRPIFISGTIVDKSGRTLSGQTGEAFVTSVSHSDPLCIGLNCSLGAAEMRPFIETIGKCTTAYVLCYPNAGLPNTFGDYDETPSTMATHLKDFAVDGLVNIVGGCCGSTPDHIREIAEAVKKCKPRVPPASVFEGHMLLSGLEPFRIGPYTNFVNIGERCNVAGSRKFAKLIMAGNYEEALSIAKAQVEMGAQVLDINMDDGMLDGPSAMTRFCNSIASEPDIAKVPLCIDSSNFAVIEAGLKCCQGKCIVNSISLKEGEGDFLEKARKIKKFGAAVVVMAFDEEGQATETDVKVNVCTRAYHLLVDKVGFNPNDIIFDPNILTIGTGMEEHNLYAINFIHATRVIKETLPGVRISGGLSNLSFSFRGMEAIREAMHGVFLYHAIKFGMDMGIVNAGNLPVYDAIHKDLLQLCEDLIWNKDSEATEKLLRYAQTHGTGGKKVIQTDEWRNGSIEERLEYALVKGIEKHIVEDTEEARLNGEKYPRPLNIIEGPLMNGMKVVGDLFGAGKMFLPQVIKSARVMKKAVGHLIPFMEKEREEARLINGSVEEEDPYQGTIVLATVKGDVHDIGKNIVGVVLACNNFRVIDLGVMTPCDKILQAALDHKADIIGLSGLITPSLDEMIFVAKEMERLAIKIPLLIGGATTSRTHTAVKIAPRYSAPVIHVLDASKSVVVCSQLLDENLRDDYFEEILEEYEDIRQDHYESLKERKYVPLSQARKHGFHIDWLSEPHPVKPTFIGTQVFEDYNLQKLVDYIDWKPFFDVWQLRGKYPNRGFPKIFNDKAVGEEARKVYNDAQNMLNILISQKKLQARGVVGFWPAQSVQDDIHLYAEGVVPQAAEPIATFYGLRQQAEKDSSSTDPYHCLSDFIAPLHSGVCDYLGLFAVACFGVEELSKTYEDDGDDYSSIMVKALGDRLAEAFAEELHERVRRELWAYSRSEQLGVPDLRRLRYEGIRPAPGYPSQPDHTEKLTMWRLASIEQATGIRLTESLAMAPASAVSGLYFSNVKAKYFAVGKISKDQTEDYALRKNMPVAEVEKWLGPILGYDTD

methionine synthase [4] = conditions: pigs exposed to nitrous oxide; cited from earlier work
methionine synthase [5] = biological target: methionine synthase (Rattus norvegicus, UniProt Q9Z2Q4); conditions: rats exposed to nitrous oxide; cited from earlier work
methionine synthase (Rattus norvegicus, UniProt Q9Z2Q4), sequence (Q9Z2Q4 whole entry): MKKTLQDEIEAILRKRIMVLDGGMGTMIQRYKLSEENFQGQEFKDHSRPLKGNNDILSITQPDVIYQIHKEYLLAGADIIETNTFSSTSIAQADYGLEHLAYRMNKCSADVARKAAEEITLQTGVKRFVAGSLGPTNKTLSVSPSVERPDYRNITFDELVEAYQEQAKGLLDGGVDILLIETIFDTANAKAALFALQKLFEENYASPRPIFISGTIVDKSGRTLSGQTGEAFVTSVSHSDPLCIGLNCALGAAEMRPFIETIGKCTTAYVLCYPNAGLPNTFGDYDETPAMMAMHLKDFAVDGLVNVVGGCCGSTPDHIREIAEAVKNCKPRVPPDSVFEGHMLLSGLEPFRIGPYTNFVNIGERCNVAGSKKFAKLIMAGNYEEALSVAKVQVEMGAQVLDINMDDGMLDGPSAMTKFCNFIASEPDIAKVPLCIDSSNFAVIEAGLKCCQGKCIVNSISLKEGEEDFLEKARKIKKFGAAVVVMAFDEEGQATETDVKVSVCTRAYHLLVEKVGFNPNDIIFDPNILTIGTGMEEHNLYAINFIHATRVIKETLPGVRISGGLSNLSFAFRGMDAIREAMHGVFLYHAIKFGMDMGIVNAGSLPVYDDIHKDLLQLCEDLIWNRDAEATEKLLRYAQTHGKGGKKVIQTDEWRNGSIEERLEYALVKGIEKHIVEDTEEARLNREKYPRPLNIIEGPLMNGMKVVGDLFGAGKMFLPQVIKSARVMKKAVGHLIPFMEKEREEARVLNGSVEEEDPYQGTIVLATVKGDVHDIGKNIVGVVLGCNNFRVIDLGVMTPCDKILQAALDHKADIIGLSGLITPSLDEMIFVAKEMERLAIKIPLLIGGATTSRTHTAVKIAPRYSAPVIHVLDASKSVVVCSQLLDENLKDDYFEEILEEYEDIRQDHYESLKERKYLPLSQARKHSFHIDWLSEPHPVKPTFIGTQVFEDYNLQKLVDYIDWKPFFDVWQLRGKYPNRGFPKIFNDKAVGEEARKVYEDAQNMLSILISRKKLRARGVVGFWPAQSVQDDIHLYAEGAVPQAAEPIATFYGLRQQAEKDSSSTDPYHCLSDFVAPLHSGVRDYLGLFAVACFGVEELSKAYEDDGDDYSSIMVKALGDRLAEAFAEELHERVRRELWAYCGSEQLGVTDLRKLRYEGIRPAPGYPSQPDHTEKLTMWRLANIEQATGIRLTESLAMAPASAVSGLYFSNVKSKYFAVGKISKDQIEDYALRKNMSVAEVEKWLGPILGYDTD

methionine synthase [6] = biological target: T1, methionine synthase; conditions: recovery in cultured cells; de novo synthesis of the enzyme required to restore activity; cited from earlier work

T1 sequence (Q99707 whole entry): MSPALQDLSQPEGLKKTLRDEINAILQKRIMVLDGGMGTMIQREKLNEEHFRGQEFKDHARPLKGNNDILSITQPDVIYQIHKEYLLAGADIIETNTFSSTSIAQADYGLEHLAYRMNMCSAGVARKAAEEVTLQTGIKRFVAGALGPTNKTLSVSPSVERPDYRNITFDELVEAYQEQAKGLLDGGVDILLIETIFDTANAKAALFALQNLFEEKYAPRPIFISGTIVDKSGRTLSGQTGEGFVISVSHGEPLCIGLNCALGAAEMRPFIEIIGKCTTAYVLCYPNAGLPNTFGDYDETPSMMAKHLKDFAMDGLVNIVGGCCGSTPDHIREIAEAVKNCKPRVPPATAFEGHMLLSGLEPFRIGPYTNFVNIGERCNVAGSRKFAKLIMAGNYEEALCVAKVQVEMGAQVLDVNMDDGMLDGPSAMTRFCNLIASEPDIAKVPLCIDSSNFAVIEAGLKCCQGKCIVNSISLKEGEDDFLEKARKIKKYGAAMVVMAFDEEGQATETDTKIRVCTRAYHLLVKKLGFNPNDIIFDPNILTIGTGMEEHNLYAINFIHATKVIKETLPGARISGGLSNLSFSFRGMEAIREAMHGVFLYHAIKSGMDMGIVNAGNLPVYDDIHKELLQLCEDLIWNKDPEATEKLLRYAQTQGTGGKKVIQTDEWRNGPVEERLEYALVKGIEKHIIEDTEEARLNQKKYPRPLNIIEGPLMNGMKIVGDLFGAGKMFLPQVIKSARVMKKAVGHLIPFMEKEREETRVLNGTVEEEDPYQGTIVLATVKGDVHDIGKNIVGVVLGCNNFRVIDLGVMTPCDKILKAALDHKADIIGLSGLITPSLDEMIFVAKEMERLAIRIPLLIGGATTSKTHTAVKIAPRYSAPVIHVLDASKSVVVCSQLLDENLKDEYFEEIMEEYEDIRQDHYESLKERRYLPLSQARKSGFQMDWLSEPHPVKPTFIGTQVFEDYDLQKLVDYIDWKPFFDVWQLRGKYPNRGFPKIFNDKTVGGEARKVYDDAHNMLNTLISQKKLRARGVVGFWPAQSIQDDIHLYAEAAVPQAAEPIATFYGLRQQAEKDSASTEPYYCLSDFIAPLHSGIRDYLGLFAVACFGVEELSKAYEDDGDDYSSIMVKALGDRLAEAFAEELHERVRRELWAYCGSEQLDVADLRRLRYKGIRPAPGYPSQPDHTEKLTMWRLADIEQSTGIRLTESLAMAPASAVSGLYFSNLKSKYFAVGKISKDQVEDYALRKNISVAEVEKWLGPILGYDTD

[N-]=[N+]=O [nitrous oxide]
Residual methionine synthase activity (methionine synthase [1]; following greater than 200 minutes of nitrous oxide administration): approaches zero
mean half-time of inactivation of methionine synthase (methionine synthase [1]; nitrous oxide administration): 46 min
clinical outcome after nitrous oxide anesthesia (methionine synthase [2]): caused the patient's death
delayed recovery of enzyme activity (methionine synthase [3]): ≥ 4 days
delayed recovery of enzyme activity (methionine synthase [4]): ≥ 4 days
delayed recovery of enzyme activity (methionine synthase [5]): ≥ 4 days
nature of nitrous oxide-mediated inhibition (methionine synthase [6]): irreversible
